“Also recorded” adds a separate entry of the source.
Key:
[1] = tested on: p53 phosphorylation in 293T cells; experiment: mass spectrometry of p53 post-translational modifications in 293T cells; format: cell-based; details: 3 hours
Description: FIGS. 10A to 10C show schematics, graphs and gels that indicate CaM and Chk2 inhibitors reduce S392 phosphorylation. FIG. 10A is a schematic of conserved regulatory region phosphorylation sites. FIG. 10B are graphs of an unbiased mass spectrometry analysis looking for post-translational modifications of p53 altered in the presence of the CaM inhibitor TFP or the Chk2 inhibitor, BML. 293T cells were transfected with WT-p53 tagged with GFP and treated with TFP or BML for 3 hours. P53 was immunoprecipitated using an antibody against GFP and was submitted for mass spec analysis. […] By two different mass spec methods, either conventional mass spec or by TMT tagging of the peptide we found in both cases the percentage of peptides containing phosphorylated serine 392 was reduced in TFP and BML treated samples (FIG. 10B). It was also noted that this serine is conserved in both zebrafish and mouse (FIG. 10A). FIG. 10C is a Western Blot that indicates phosphorylation decrease.

[2] = tested on: 293T cells with RPS19 shRNA; experiment: phosphorylation in 293T cells with RPS19 shRNA; format: cell-based, human
Text: FIGS. 17A to 17C are scehmatics and gels that indicate CaM and Chk2 inhibitors block phosphorylation of p70S6K selectively during RP deficiency. FIG. 17A schematic, we used 293T cells, and induced ribosomal protein deficiency using shRNA for RPS19 or Luc for control. […] ERK phosphorylation is increased by these inhibitors, which is also seen with RSK inhibitors. FIG. 17C a gel of the effect of Luc and […] shRNA on phosphorylated S392. […] RSK inhibitors increase ERK phosphorylation through a negative feedback loop. So TFP and BML similarly affect ERK in the same manner.

[3] = tested on: rps29−/− zebrafish embryos; experiment: chemical screen: rescue of morphological, hematopoietic and endothelial defects of rps29-/- embryo; format: in vivo
[4] = tested on: RPS19 shRNA CD34+ peripheral blood mononuclear cells; experiment: primary human in vitro differentiation model of DBA: CD34+ PBMCs with RPS19 shRNA, CD71+ flow cytometry; format: cell-based; details: treated once for 5 days
Text: FIG. 40 is a schematic of the testing of novel phenothiazine derivatives in a human in vitro model of DBA. Primary human peripheral blood mononuclear cells (PBMCs) are transduced with RPS19-GFP shRNA to make a ribiosomal protein deficiency. Cells are transferred to eyrthroid differentiation media and treated once for 5 days with Drug. Cells are harvested and analyzed for erythroid precursors by flow cytomety for CD71^+ cells.
We next tested three derivatives in our primary human in vitro differentiation model of DBA. To do this we expanded CD34+ peripheral blood mononuclear cells in culture for 2 days and induced ribosomal protein deficiency with a lentirvirus containing RPS19 shRNA (FIG. 40). After 3 days the cells are placed into erythroid differentiation media with or without the novel derivatives and cultured for 5 days. Erythroid differentiation is then assessed by flow cytometry analysis for the transferrin receptor, CD71+. […] In addition, the novel derivatives increased the absolute erythroid number compared to DMSO treated (FIG. 41). […] A table summarizing the activity of the compounds is found in FIG. 43.

[5] = tested on: rps29−/− zebrafish embryos; experiment: hemoglobin (benzidine staining) rescue in rps29-/- zebrafish embryos; format: in vivo; details: for Hb increase at low concentrations: rps29−/− embryos, compared with positive control fluphenazine / with DB-4-089; for hemoglobin (Hb) in rps29−/− embryos: benzidine staining
6 dpf WT zebrafish = experiment: zebrafish behavior tracking (proxy for BBB permeation); details: for zebrafish movement / swimming behavior vs DMSO: 6 dpf, drug in fish water, tracked 1-2 h

NC(=O)c1ccc2nc(-c3ccc(Oc4ccc(Cl)cc4)cc3)[nH]c2c1 [BML]
percentage of peptides containing phosphorylated Serine 6 of p53 [1]: did not change
percentage of peptides containing phosphorylated Serine 315 of p53 [1]: did not change
percentage of peptides containing phosphorylated serine 392 of p53 ([1]; WT-p53-GFP): reduced
ERK phosphorylation [2]: increased
phosphorylation of p70S6K ([2]; during ribosomal protein deficiency): selectively inhibited

CN1CCC(N(CCCN2c3ccccc3Sc3ccc(Cl)cc32)CCCN2c3ccccc3Sc3ccc(Cl)cc32)CC1 [compound 089]
rescuing morphological defects and hematopoietic and endothelial defects [3]: work particularly well
percentage of erythroid precursor cells (CD71+) compared to DMSO [4]: increased the percentage of erythroid precursor cells
percentage of erythroid precursor cells (CD71+) compared to DMSO ([4]; listed as DB-4-089): increased eyrthroid differentiation
Hb increase at low concentrations [5]: increase Hb at lower concentrations than the positive control phenothiazine
Hb increase at low concentrations ([5]; listed as DB-4-089): increased Hb at low concentrations
zebrafish movement / swimming behavior vs DMSO (6 dpf WT zebrafish): altered behavior; also recorded: alters movement
toxicity in behavior assay (6 dpf WT zebrafish; highest dose): toxic at the highest dose

Clc1ccc2c(c1)N(CCCN1CCN(CCNCCCOCCOCCOCCCNC(c3ccccc3)(c3ccccc3)c3ccccc3)CC1)c1ccccc1S2 [221E]
zebrafish movement / swimming behavior vs DMSO (6 dpf WT zebrafish): more erratic activity

CC(C)N(CCCN1c2ccccc2Sc2ccc(Cl)cc21)CCCN1c2ccccc2Sc2ccc(Cl)cc21 [088-2]
rescuing morphological defects and hematopoietic and endothelial defects [3]: work particularly well
percentage of erythroid precursor cells (CD71+) compared to DMSO [4]: increased the percentage of erythroid precursor cells
Hb increase at low concentrations [5]: increase Hb at lower concentrations than the positive control phenothiazine

CCc1cncnc1N1CCN(Cc2nc3cc(C(F)(F)F)ccc3[nH]2)CC1 [PF, 2-[[4-(5-Ethylpyrimidin-4-yl)piperazin-1-yl]methyl]-5-(trifluoromethyl)-1H-benzo[d]imidazole]
hemoglobin (Hb) in rps29−/− embryos [5]: increase Hb

CC(C)(C)OC(=O)CCN1CCN(CCCN2c3ccccc3Sc3ccc(Cl)cc32)CC1 [compound 083]
Hb increase at low concentrations [5]: did not increase Hb at the same low concentrations

NCCNS(=O)(=O)c1cccc2c(Cl)cccc12 [A-3]
hemoglobin (Hb) in rps29−/− embryos [5]: rescue Hb

OCCN1CCN(CCCN2c3ccccc3Sc3ccc(Cl)cc32)CC1 [perphenizine]
hemoglobin (Hb) in rps29−/− embryos [5]: increase Hb

CC(C)NCCCN1c2ccccc2Sc2ccc(Cl)cc21 [088-3]
rescuing morphological defects and hematopoietic and endothelial defects [3]: work particularly well
Hb increase at low concentrations [5]: increase Hb at lower concentrations than the positive control phenothiazine

Clc1ccc2c(c1)N(CCCN1CCCCC1)c1ccccc1S2 [compound 084]
Hb increase at low concentrations [5]: did not increase Hb at the same low concentrations

Clc1ccc2c(c1)N(CCCN1CCOCC1)c1ccccc1S2 [compound 086]
Hb increase at low concentrations [5]: did not increase Hb at the same low concentrations

NCCCCCCNS(=O)(=O)c1cccc2c(Cl)cccc12 [W-7]
hemoglobin (Hb) in rps29−/− embryos [5]: rescue Hb

O=C(O)CCC(=O)NCCN1CCN(CCCN2c3ccccc3Sc3ccc(Cl)cc32)CC1 [PerSucc]
rescuing morphological defects and hematopoietic and endothelial defects [3]: work particularly well
hemoglobin (Hb) in rps29−/− embryos [5]: dramatic rescue of Hb expression; also recorded: increase Hb
zebrafish movement / swimming behavior vs DMSO (6 dpf WT zebrafish): less active and rest more than DMSO treated fish

OCCN1CCN(CCCN2c3ccccc3Sc3ccc(C(F)(F)F)cc32)CC1 [FLU, fluphenazine]
hemoglobin (Hb) in rps29−/− embryos [5]: rescues better than either RSK or p70S6K inhibitor alone
hemoglobin (Hb) in rps29−/− embryos ([5]; listed as fluphenazine): increase Hb
